{
  "source": "patent US12201608B2",
  "about": "“Methods for treating Parkinson's disease by administering resiniferatoxin” (Sorrento Therapeutics, Inc., priority 2018, dated 2025)",
  "system": "dopamine and its metabolite levels in the striatum, AAV-A53T mouse model of PD-like pathology",
  "assay": "Dopamine and metabolites in ipsilateral and contralateral striatum by HPLC",
  "assay_type": "in vivo, C57Bl/6J male mice",
  "conditions": "for dopamine levels in striatum: vs AAV-A53T vehicle",
  "experimental": "For this study, a total of 110 male C57Bl/6J mice two months of age were infused with either AAV-A53T (90 mice) or AAV-Null (20 mice) into substantia nigra unilaterally to induce PD-like pathology or to serve as sham controls, respectively. Mice infused with AAV-Null (empty) vector (“sham-infused” mice) were used in order to control for the effect of the viral infusion. After 7 or 14 days of AAV-A53T mediated disease model induction, the mice were treated with RTX (0.04 μg or 0.125 μg) (5 μL volume, prepared from a 25 μg/ml RTX solution containing Polysorbate 80 at 0.03% w/v, dextrose at 0.05% w/v, Phosphate Buffer at 30 mM, and NaCl 0.54% w/v, pH 7.2, and diluted in saline as needed) by single intrathecal infusion at lumbar spinal cord area. One AAV-Null and AAV-A53T infused group per each time point were treated with vehicle instead of RTX.\nThe mice were then treated with RTX or vehicle by intrathecal infusion 7 or 14 days after AAV infusion. The mice were assigned to treatment groups as follows: • Group 1: 10 male mice sham-infused with AAV-null, and administered vehicle at D7. • Group 2: 15 male mice infused with AAV-A53T, and administered vehicle at D7. • Group 3: 15 male mice infused with AAV-A53T, and administered 0.04 μg of RTX at D7. • Group 4: 15 male mice infused with AAV-A53T, and administered 0.125 μg of RTX at D7. • Group 5: 10 male mice sham-infused with AAV-null, and administered vehicle at D14. • Group 6: 15 male mice infused with AAV-A53T, and administered vehicle at D14. • Group 7: 15 male mice infused with AAV-A53T, and administered 0.04 μg of RTX at D14. • Group 8: 15 male mice infused with AAV-A53T, and administered 0.125 μg of RTX at D14.\nBody weight of the animals was monitored two times per week. Fine motor kinematic analysis was performed 7 weeks after AAV infusion. 8 weeks post AAV infusion, the mice were euthanized and subjected to tissue sample collection. Dopamine and its metabolites were analyzed from ipsilateral and contralateral striata by high performance liquid chromatography (HPLC).\nIpsi- and contralateral striatum were collected in 1.5 mL Eppendorf tubes, snap-frozen on dry ice (i.e. left and right separately), weighed and stored at −80° C. for HPLC analysis of dopamine and its metabolites.\nDopamine (DA), 3,4-dihydroxyphenylacetic acid (DOPAC) and homovanillic acid (HVA) concentrations in mouse striatal tissue samples were determined by high performance liquid chromatography (HPLC) method with electrochemical detection. After thawing on ice, tissue samples were homogenized (1:10, w/v) in 0.1 M perchloric acid with MSE Soniprep 150 ultrasonic disintegrator (MSE Scientific Instruments, Crawley, UK). Tissue homogenates were centrifuged for 15 min at 15000 g at 4° C. Supernatants were filtered through polypropylene membrane (GHP Acrodisc 13 0.45 μm, Pall Corporation, Ann Arbor, MI, USA) and diluted (1:1) with 0.1 M perchloric acid. The samples were transferred into plastic vials and analyzed immediately.\nThe ESA HPLC system (ESA Inc., Chelmsford, MA, USA) consists of a 582 solvent delivery system, a DG-1210 vacuum degasser, an 542 autosampler, a 880 thermostatted chamber, an eight-channel CoulArray® 5600 electrochemical array detector equipped with a two-channel 5014B microdialysis cell and a CoulArray® for Windows data acquisition module (version 1.00). The applied potentials are −175 mV (channel 1), +225 mV (channel 2), +350 mV (channel 3) and +450 mV (channel 4). DA and DOPAC are detected on channel 2 and HVA on channel 3. Injection volume is 10 μl.\nThe analytes were separated on a Zorbax SB-Aq reversed-phase column (2.1×100 mm, 3.5 μm, Agilent Technologies Inc., Little Falls, Wilmington, DE, USA) with a Zorbax SB-Aq precolumn (2.1×12.5 mm, 5 μm) in an isocratic run. The column was maintained at 35° C. The mobile phase was 100 mM monobasic sodium phosphate containing 4.75 mM citric acid monohydrate, 7 mM 1-octanesulfonic acid and 50 μM disodium EDTA-acetonitrile mixture (98:2, v/v). […]",
  "key": {"[1]": {"conditions": "high dose, 7 days after AAV-A53T infusion, statistically non-significant (one-way ANOVA)"}},
  "note": "“Also recorded” adds a separate entry of the source.",
  "data": [
    {"smiles": "C=C(C)[C@]12C[C@@H](C)[C@@]34O[C@](Cc5ccccc5)(O[C@@H]1[C@@H]3C=C(COC(=O)Cc1ccc(O)c(OC)c1)C[C@]1(O)C(=O)C(C)=C[C@@H]41)O2", "note": "[RTX, Resiniferatoxin]", "values": [
      {"measurement": "dopamine and its metabolites levels, treatment effect", "setting": "AAV-A53T vehicle groups vs corresponding RTX groups, striata 8 weeks after model induction", "result": "no significant effects of RTX treatment; also recorded: no significant treatment effect"},
      {"measurement": "dopamine turnover ((DOPAC + HVA) / dopamine)", "setting": "both doses, 7 and 14 days after AAV-A53T infusion, statistically non-significant (Kruskal-Wallis test)", "result": "minor trend towards even higher turnover rates"},
      {"measurement": "DOPAC levels in striatum", "setting": "groups treated at day 14", "result": "non-significant trend of lower DOPAC levels"},
      {"measurement": "HVA levels in striatum", "setting": "groups treated at day 14", "result": "non-significant trend of lower HVA levels"},
      {"measurement": "dopamine levels in striatum", "setting": "groups treated at day 14", "result": "non-significant trend of lower dopamine levels"},
      {"measurement": "DOPAC levels in striatum", "setting": "[1]", "result": "minor trend towards higher DOPAC levels"},
      {"measurement": "HVA level in striatum", "setting": "[1]", "result": "minor trend towards higher concentration"},
      {"measurement": "dopamine levels in striatum", "setting": "[1]", "result": "minor trend towards higher dopamine levels"}
    ]}
  ]
}
